Like-named read-outs stand apart in the source and are kept apart here.
Key:
[1] = tested on: HIV-1; details: cited from earlier work
[2] = tested on: HIV-1 fusion intermediates; details: cited from earlier work
[3] = tested on: HIV-1JR-FL (R5)
Procedure: HIV-1 virus-cell fusion assays NLluc^+env^− viruses were complemented in trans by the envelope glycoproteins (Env) from HIV-1JR-FL (R5) or HIV-1DH123 (R5X4). HeLa-CD4^+CCR5^+ cells were infected with chimeric reporter viruses containing 50-100 ng/ml of p24 in the presence or absence of drugs. Cells were washed and fed fresh drug-containing media at 2 h and drug-free media at 12 h. After 72 h, cell lysates were assayed for luciferase activity.
(§1) Quantitative analysis of drug interactions Inhibition data from three independent assays were averaged and analyzed for cooperative effects using the Combination Index (CI) method. In all analyses, PRO 542 and T-20 were assumed to act non-competitively, which leads to a more conservative estimate of synergy. CI values of <0.9 (or >1.1) were taken to represent meaningful synergy (or antagonism). Dose reductions were calculated as the ratio of drug concentrations required for inhibition when the drug is used, alone or in combination.
An HIV-1 virus-cell fusion assay is described in FIG. 15. In a single-cycle HIV-1 entry assay, Env-Luc+ HIV reporter viruses were prepared as described. The viruses are complemented with gp120/gp41 from an HIV strain of interest and thus are capable of fusing with target cells that express CD4 and fusion coreceptors, resulting in the introduction of the viral genes into the cell. Because the viruses encode the luciferase reporter enzyme rather than HIVenv, infection leads to the production of luciferase rather than new viral particles. The amount of luciferase is measured 72 hours post-infection using standard methods.

[4] = tested on: HIV-1JR-FL env-mediated membrane fusion
Procedure: HIV-1 envelope-mediated fusion between HeLa-EnvJR-FL and PM1 cells was detected using a Resonance Energy Transfer (RET) assay.
HIV-1 inhibition data were analyzed according to the Combination Index method of Chou and Talay. The data are modeled according to the median-effect principle, which can be written f=1/[1+(K/c)^m] (1) where f is the fraction affected/inhibited, c is concentration, K is the concentration of agent required to produce the median effect, and m is an empirical coefficient describing the shape of the dose-response curve. Equation (1) is a generalized form of the equations describing Michaelis-Menton enzyme kinetics, Langmuir adsorption isotherms, and Henderson-Hasselbalch ionization equilibria, for which m=1 in all cases. In the present case, K is equal to the IC50 value. K and m are determined by curve-fitting the dose-response curves.
(§2) After the best-fit parameters for K and m are obtained for the experimental agents and their combination, Equation (1) is rearranged to allow for calculation of c for a given f. The resulting table of values (e.g., Figure X) is used to calculate the Combination Index (CI) using the equation CI=c1m/c1+c2m/c2+c1mc2m/c1c2 (2) where • c1=concentration of compound 1 when used alone • c2=concentration of compound 2 when used alone • C1m=concentration of compound 1 in the mixture • C2m=concentration of compound 2 in the mixture
All concentrations are those required to achieve a given degree of inhibition. Equation (2) is used when the molecules are mutually nonexclusive, i.e., have different sites of action. Since this is the likely scenario for inhibitors of HIV-1 attachment and gp41 fusion intermediates, Equation (2) was used for all Combination Index calculations. Mutually nonexclusive calculations provide a more conservative estimate of the degree of synergy that mutually exclusive calculations, for which the c1mc2m/c1c2 term is dropped. CI<1 indicates synergy, CI=1 indicates purely additive effects, and CI>1 indicates antagonism. In general, CI values are most relevant at the higher levels of inhibition that are required to achieve a measurable clinical benefit.
as §2, with “c2 concentration” for “c2=concentration”, “c1m=concentration” for “C1m=concentration”, “c2m=concentration” for “C2m=concentration”
HIV-1 cell-cell fusion assays Cell-cell fusion mediated by the envelope glycoproteins of HIV-1JR-FL and HIV-1LAI was measured using a fluorescence resonance energy transfer (RET) assay, which measures fusion between HeLa cells expressing HIV-1 envelope glycoproteins and CD4^+ target cells. The T cell lines PM1 and SupT1 were used as target cells in this study. PM1 endogenously express CCR5 and CXCR4. […] The RET signal is directly related to the extent of membrane fusion.
as §1
An HIV-1 cell-cell fusion assay is described in FIG. 18. Such assay is a Resonance Energy Transfer (RET) assay of HIV-1 membrane fusion.

[5] = cells and inhibitor co-incubated 2 h at 25° C. prior to washing and warming to 37° C., data not shown

Substance: enfuvirtide
- pK, in words ([1]; Phase I/II clinical trials): supports twice daily subcutaneous dosing
- tolerability ([1]; Phase I/II clinical trials): good tolerability
- viral load, in words ([1]; Phase I/II clinical trials): clinically significant dose-dependent reductions
- reduction of plasma HIV RNA levels ([1]; Phase I/II): ≤ 2 logs
- reductions in HIV RNA ([1]; single agent, Phase I/II trials): 1-2 log10
- inhibition ([2]; added at 75 minutes): < 10%
- inhibition ([2]; added within the first 15 minutes of cell mixing): 100%
- dose reduction (fold less drug needed) ([3]; 90-95% inhibition, 1:2 molar): ~20 fold
- IC90 ([3]; read-out: IC90 (concentration required for 90% inhibition), alone, or total of 1:2 molar PRO 542:T-20 combination): 0.045 µM
- IC90 ([3]; read-out: concentration of the agent in the combination at IC90, 1:2 molar combination): 0.0026 µM
- concentration of the agent contained in the combination at 95% inhibition ([4]; 25:1 CD4-IgG2:T-20 mass ratio combination): 0.044 µg/mL
- dose reduction (alone v. in combination) ([4]; 95% inhibition, 25:1 mass ratio): 5 fold
- activity in cell-cell preincubation assay, in words ([4]; HeLa-Env and PM1 cells co-incubated 2 h at 25° C., inhibitor added, warmed to 37° C.): fully active
- concentration required for inhibition of viral entry by 95% ([4]; agent used alone, or total of 25:1 mass ratio combination): 0.21 µg/mL
- IC90 ([4]; alone, or total of 1:10 molar PRO 542:T-20 combination): 0.022 µM
- K (concentration producing the median effect, equal to IC50) ([4]; best-fit median-effect parameter, 4 h incubation, mean of three experiments): 0.017 mg/L
- activity, in words [4, 5]: essentially inactive
- fold increase in IC50 [4, 5]: > 250 fold
- activity when pre-incubated with PM1 cells prior to washing ([4]; data not shown): Neither drug demonstrated activity
- activity in washout assay, in words ([4]; drug pre-incubated with HeLa-Env cells, washed, then PM1 cells added): essentially inactive
- IC90 ([4]; read-out: concentration of the agent in the combination at IC90, 1:10 molar combination): 0.0049 µM

Reference: patent publication US7736649B2, “Methods of inhibiting human immunodeficiency virus infection through the administration of synergistic combinations of anti-CCR5 monoclonal antibodies, fusion inhibitors, and CD4-GP120 binding inhibitors” (priority 2000, dated 2010)
